# Results from patent US11000491B2, “Amino-aryl-benzamide compounds and methods of use thereof” (HEPANOVA, INC., priority 2017, dated 2021).
# Where two headings read alike, the source gives them in different places.
# How the values were obtained:
# Type in all cases: cell-based
# SREBP-1 = SREBP-1 expression in cultured primary human hepatocytes; conditions: procedure of Example 6, read-out: SREBP-1 mRNA inhibition (EC50)
# Protocol: (§1) FIG. 9. Effects of HPN-01 on the expression of SREBP-1 (master regulator of hepatic glucose metabolism and fatty acid synthesis) and SREBP-2 (master regulator of cholesterol homeostasis in cells) in cultured primary human hepatocytes.
# (§2) Cultured primary human hepatocytes were treated with various concentrations of HPN-01, and the expression levels of SREBP-1 (master regulator of hepatic glucose metabolism and fatty acid synthesis) and SREBP-2 (master regulator of cholesterol homeostasis in cells) were subsequently determined.
# (§3) The ability of each HPN-01 derivative obtained from the synthesis methods described above, to inhibit SREBP-1 and SREBP-2 mRNA expression in primary hepatocytes, was tested using the procedure outlined in Example 6. The results of this analysis are shown in Table 6 (third and fourth columns).
# SREBP-2 = SREBP-2 expression in cultured primary human hepatocytes; conditions: procedure of Example 6, read-out: SREBP-2 mRNA inhibition (EC50)
# Protocol: as §1, §2, §3
# Huh7 cells = assay: LD content in Huh7 cells pre-treated with insulin, Oil-Red-O staining, absorbance OD 540 nm; conditions: procedure of Example 3, read-out: LD content inhibition (EC50)
# Protocol: FIG. 6. […] Spectrophotometric absorbance of untreated or HPN-01-treated Huh7 cells pre-incubated with 1 mM insulin is shown. LD contents were stained using Oil Red O, and measured by determining spectrophotometer absorbance under OD 540 nm.
# Huh7 cells were mock treated or pre-treated with 1 mM insulin, and subsequently treated with indicated amounted of HPN-01.
# The ability of each HPN-01 derivative obtained from the synthesis methods described above, to inhibit LD formation in hepatocytes, was tested using the procedure outlined in Example 3. The results of this analysis are shown below in Table 6 (second column).
# [1] = Homo sapiens, Huh-7, Huh7 cells
EC50 (Huh7 cells; [1]),EC50 (Huh7 cells; Huh7 cells),Molecule,"EC50 (SREBP-1; Homo sapiens, Hepatocyte)","EC50 (SREBP-2; Homo sapiens, Hepatocyte)",EC50 (SREBP-1; Hepatocyte),EC50 (SREBP-2; Hepatocyte),EC50 (SREBP-1),EC50 (SREBP-2)
0.63 µM,–,"COC(=O)c1cccc(Nc2cc(C(N)=O)c(N)c(-c3ccc(S(N)(=O)=O)cc3)c2)c1 [HPN-01319, methyl 3-((6-amino-5-carbamoyl-4′-sulfamoyl-[1,1′-biphenyl]-3-yl)amino)benzoate]",4.8 µM,3.42 µM,–,–,–,–
0.82 µM,–,"CCC(=O)Oc1ccc(-c2cc(C(N)=O)c(N)c(-c3ccc(S(N)(=O)=O)cc3)c2)cc1 [HPN-01305, 4′-amino-5′-carbamoyl-4″-sulfamoyl-[1,1′:3′,1″-terphenyl]-4-yl propionate]",1.74 µM,3.9 µM,–,–,–,–
1.44 µM,–,"NC(=O)c1cc(-c2ccc(Cl)cc2)cc(Oc2cccc(S(=O)(=O)NCCO)c2)c1N [HPN-01422, 4-amino-4′-chloro-5-(3-(N-(2-hydroxyethyl)sulfamoyl)phenoxy)-[1, 1′-biphenyl]-3-carboxamide]",1.52 µM,3.93 µM,–,–,–,–
1.07 µM,–,"Nc1c(C(=O)Nc2ccc(F)c(F)c2)cc(-c2ccc(Br)cc2)cc1-c1ccc(S(N)(=O)=O)cc1 [HPN-01616, 4′-amino-4-bromo-N-(3,4-difluorophenyl)-4″-sulfamoyl-[1,1′:3′,1″-terphenyl]-5′-carboxamide]",3.57 µM,6.79 µM,–,–,–,–
1.67 µM,–,"CC(=O)Nc1c(C(N)=O)cc(-c2ccc(Cl)cc2)cc1-c1ccc(S(N)(=O)=O)cc1 [HPN-01501, 4′-acetamido-4-chloro-4″-sulfamoyl-[1,1′:3′,1″-terphenyl]-5′-carboxamide]",5.04 µM,8.55 µM,–,–,–,–
0.83 µM,–,"Cc1ccc(NC(=O)/C=C/c2cc(C(N)=O)c(N)c(-c3ccc(S(N)(=O)=O)cc3)c2)cc1 [HPN-01126, (E)-2-amino-5-(3-oxo-3-(p-tolylamino)prop-1-en-1-yl)-4′-sulfamoyl-[1,1′-biphenyl]-3-carboxamide]",2.43 µM,4.54 µM,–,–,–,–
1.29 µM,–,"NC(=O)c1cc(C#CCOC(=O)c2ccccc2F)cc(-c2ccc(S(N)(=O)=O)cc2)c1N [HPN-01213, 3-(6-amino-5-carbamoyl-4′-sulfamoyl-[1,1′-biphenyl]-3-yl)prop-2-yn-1-yl 2-fluorobenzoate]",4.55 µM,4.88 µM,–,–,–,–
0.14 µM,–,"NC(=O)c1cc(-c2ccc(Cl)cc2)cc(-c2ccc(NC(=O)Nc3cccnc3)cc2)c1N [HPN-01429, 4′-amino-4-chloro-4″-(3-(pyridin-3-yl)ureido)-[1,1′:3′,1″-terphenyl]-5′-carboxamide]",6.69 µM,3.98 µM,–,–,–,–
0.33 µM,–,"NC(=O)c1cc(/C=C/C(=O)O)cc(-c2ccc(S(N)(=O)=O)cc2)c1N [HPN-01113, (E)-3-(6-amino-5-carbamoyl-4′-sulfamoyl-[1,1′-biphenyl]-3-yl)acrylic acid]",0.69 µM,0.97 µM,–,–,–,–
–,1.3 µM,"4-(4′-amino-4-bromo-4″-sulfamoyl-[1,1′:3′,1″-terphenyl]-5′-yl)piperazine-1-carboxamide [HPN-01624]",–,–,–,–,7.54 µM,13.5 µM
0.81 µM,–,"CCCC(=O)Nc1c(C(N)=O)cc(-c2ccc(Cl)cc2)cc1-c1ccc(NC(N)=O)cc1 [HPN-01519, 4′-butyramido-4-chloro-4″-ureido-[1,1′:3′,1″-terphenyl]-5′-carboxamide]",1.51 µM,2.75 µM,–,–,–,–
5.92 µM,–,"NC(=O)c1cc(Oc2cccc(Cl)c2)cc(-c2ccc(S(N)(=O)=O)cc2)c1N [HPN-01316, 2-amino-5-(3-chlorophenoxy)-4′-sulfamoyl-[1,1′-biphenyl]-3-carboxamide]",8.02 µM,11.2 µM,–,–,–,–
0.52 µM,–,"Cc1ccc(C(=O)OCC#Cc2cc(C(N)=O)c(N)c(-c3ccc(S(N)(=O)=O)cc3)c2)cc1 [HPN-01214, 3-(6-amino-5-carbamoyl-4′-sulfamoyl-[1,1′-biphenyl]-3-yl)prop-2-yn-1-yl 4-methylbenzoate]",3.42 µM,6.32 µM,–,–,–,–
1.33 µM,–,"COc1cccc(NC(=O)c2cc(-c3ccc(Cl)cc3)cc(-c3ccc(S(N)(=O)=O)cc3)c2N)c1 [HPN-01619, 4′-amino-4-chloro-N-(3-methoxyphenyl)-4″-sulfamoyl-[1, 1′:3′,1″-terphenyl]-5′-carboxamide]",4.18 µM,7.95 µM,–,–,–,–
0.65 µM,–,"CCCC(=O)Nc1cccc(/C=C/c2cc(C(N)=O)c(N)c(-c3ccc(S(N)(=O)=O)cc3)c2)c1 [HPN-01112, (E)-2-amino-5-(3-butyramidostyryl)-4′-sulfamoyl-[1,1′-biphenyl]-3-carboxamide]",2.03 µM,1.36 µM,–,–,–,–
2.39 µM,–,"CCCNC(=O)c1cc(-c2ccc(Cl)cc2)cc(-c2ccc(S(N)(=O)=O)cc2)c1N [HPN-01603, 4′-amino-4-chloro-N-propyl-4″-sulfamoyl-[1,1′:3′,1″-terphenyl]-5′-carboxamide]",7.22 µM,9.4 µM,–,–,–,–
0.48 µM,–,"CCCCNc1c(C(N)=O)cc(-c2ccc(Cl)cc2)cc1-c1ccc(S(N)(=O)=O)cc1 [HPN-01533, 4′-(butylamino)-4-chloro-4″-sulfamoyl-[1,1′:3′,1″-terphenyl]-5′-carboxamide]",2.83 µM,11.7 µM,–,–,–,–
0.81 µM,–,"NC(=O)c1cc(-c2ccc(Cl)cc2)cc(OCCc2ccc(S(N)(=O)=O)cc2)c1N [HPN-01423, 4-amino-4′-chloro-5-(4-sulfamoylphenethoxy)-[1,1′-biphenyl]-3-carboxamide]",1.36 µM,2.37 µM,–,–,–,–
1.37 µM,–,"Nc1c(C(=O)NCc2ccc[nH]2)cc(-c2ccc(Cl)cc2)cc1-c1ccc(S(N)(=O)=O)cc1 [HPN-01629, N-((1H-pyrrol-2-yl)methyl)-4′-amino-4-chloro-4″-sulfamoyl-[1,1′:3′,1″-terphenyl]-5′-carboxamide]",2 µM,8.6 µM,–,–,–,–
–,0.55 µM,2-amino-5-((4-fluorophenyl)ethynyl)-4′-sulfamoylbiphenyl-3-carboxamide [HPN-01203],–,–,–,–,1.7 µM,2.1 µM
1.07 µM,–,"CC(=O)Nc1ccc(-c2cc(-c3ccc(Cl)cc3)cc(C(N)=O)c2N)cc1 [HPN-01407, 4″-acetamido-4’-amino-4-chloro-[1,1′:3′,1″-terphenyl]-5′-carboxamide]",5.41 µM,9.69 µM,–,–,–,–
0.58 µM,–,"CCCC(=O)OCC#Cc1cc(C(N)=O)c(N)c(-c2ccc(S(N)(=O)=O)cc2)c1 [HPN-01224, 3-(6-amino-5-carbamoyl-4′-sulfamoyl-[1,1′-biphenyl]-3-yl)prop-2-yn-1-yl butyrate]",1.58 µM,2.57 µM,–,–,–,–
5.36 µM,–,"CC(C)NC(=O)Nc1ccc(-c2cc(-c3ccc(Cl)cc3)cc(C(N)=O)c2N)cc1 [HPN-01430, 4′-amino-4-chloro-4″-(3-isopropylureido)-[1,1′:3′,1″-terphenyl]-5′-carboxamide]",1.88 µM,4.37 µM,–,–,–,–
0.75 µM,–,"Cc1ccccc1C(=O)OCC#Cc1cc(C(N)=O)c(N)c(-c2ccc(S(N)(=O)=O)cc2)c1 [HPN-01212, 3-(6-amino-5-carbamoyl-4′-sulfamoyl-[1,1′-biphenyl]-3-yl)prop-2-yn-1-yl 2-methylbenzoate]",2.27 µM,1.85 µM,–,–,–,–
2.51 µM,–,"NC(=O)Nc1ccc(-c2cc(-c3ccc(Cl)cc3)cc(C(N)=O)c2NC(=O)CCO)cc1 [HPN-01520, 4-chloro-4′-(3-hydroxypropanamido)-4″-ureido-[1,1′:3′,1″-terphenyl]-5′-carboxamide]",3.01 µM,4.45 µM,–,–,–,–
2.6 µM,–,"NCC(=O)Nc1c(C(N)=O)cc(-c2ccc(Br)cc2)cc1-c1ccc(S(N)(=O)=O)cc1 [HPN-01527, 4′-(2-aminoacetamido)-4-bromo-4″-sulfamoyl-[1,1′:3′,1″-terphenyl]-5′-carboxamide]",5.25 µM,5.69 µM,–,–,–,–
0.75 µM,–,"NC(=O)c1cc(-c2ccc(Cl)cc2)cc(-c2ccc(-c3c[nH]nn3)cc2)c1N [HPN-01421, 4′-amino-4-chloro-4″-(1H-1,2,3-triazol-4-yl)-[1,1′:3′,1″-terphenyl]-5′-carboxamide]",1.51 µM,2.22 µM,–,–,–,–
1.11 µM,–,"NC(=O)c1cc(-c2ccc(Cl)cc2)cc(-c2ccc(S(N)(=O)=O)cc2)c1NCCc1ccccc1 [HPN-01534, 4-chloro-4′-(phenethylamino)-4″-sulfamoyl-[1,1′:3′,1″-terphenyl]-5′-carboxamide]",2.92 µM,6.79 µM,–,–,–,–

Molecule,EC50 (Huh7 cells; [1]),EC50 (Huh7 cells; Huh7 cells),"EC50 (SREBP-1; Homo sapiens, Hepatocyte)","EC50 (SREBP-2; Homo sapiens, Hepatocyte)",EC50 (SREBP-1; Hepatocyte),EC50 (SREBP-2; Hepatocyte),EC50 (SREBP-1),EC50 (SREBP-2)
"NC(=O)c1cc(-c2ccc(Cl)cc2)cc(-c2ccc(OP(=O)(O)O)cc2)c1N [HPN-01405, 6′-amino-5′-carbamoyl-4″-chloro-[1,1′:3′,1″-terphenyl]-4-yl dihydrogen phosphate]",0.76 µM,–,–,–,2.5 µM,3.98 µM,–,–
NC(=O)c1cc(-c2ccc(Cl)cc2)cc(Sc2ccc(S(N)(=O)=O)cc2)c1N [HPN-01403],–,0.36 µM,–,–,–,–,1.96 µM,3.09 µM
